According to US11026940B2, “Compositions for the mobilization, homing, expansion and differentiation of stem cells and methods of using the same” (Ampio Pharmaceuticals, Inc., priority 2013, dated 2021):
Values joined by “and” are separate entries in the source; they are usually repeats but may differ in a detail not shown here. Equal values may be shown once.

What was measured:
Assay type in all cases: cell-based, human
[1] = system: SOX9; experiment: Stem cell chondrogenesis, real time PCR gene expression: SOX9; conditions: Day 14
Description: The treatment protocol included expanding 5 HUXMA stem cells in 182 cm^2 flasks containing 40 […] to 80-90% confluence. Cells were trypsinized from the flasks and a 1.0×10^7 cell suspension of HUXMA stem cells was warmed in Cyagen Chondrogenic Differentiation medium. 20 μl of warmed cell suspension was spotted in the middle of each well of a 24-well tissue culture plate (200,000 cells per spot), and incubated at 37° C. and 5% CO2 for one hour. […] Medium exchanges were performed every 3-4 days by aspirating the medium from the wells and replacing with fresh chondrogenic medium, diluted stocks, and TGF beta 3, as described above. […] Medium from the wells was removed and saved for further protein analysis. Qiagen RNeasy plus lysis buffer (with 2mercaptoethanol) was added to each well and gently shaken for 10 minutes. The lysed cell suspensions from each well were transferred to Qiashredder columns and spun at 14,000 rpm for 2 minutes. RNA isolation proceeded by RNeasyTM plus manufacturer's protocol. RNA was eluted from the Qiagen columns using 25 μl RNase free water. cDNA synthesis and real time PCR was conducted as follows. First strand synthesis of cDNA from all samples was performed in 20 μl total volume using 10 μl isolated RNA. All cDNA reactions were then diluted with 30 μl nuclease free water. Real time PCR was then performed using 5 μl diluted cDNA, Roche Syber green master mix, and Qiagen RT^2 gPCRTM primer pairs in 20 μl total reaction volume.

[2] = system: Collagen 2A1; experiment: Stem cell chondrogenesis, real time PCR gene expression: Collagen 2A1; conditions: for Cp Coll / Mean regulation: Collagen 2A1; for Cp Coll / Mean regulation / Mean ΔCp / ΔCp: Day 22; for Mean regulation: vs saline; for Mean ΔCp / ΔCp: Collagen 2A1 vs GAPDH; for regulation, Collagen 2A1 / Mean regulation, Collagen 2A1: fold regulation vs saline; for regulation, Collagen 2A1 / ΔCp, Collagen 2A1 / 2^-ΔΔCp vs saline, Collagen 2A1 / ΔΔCp vs saline, Collagen 2A1: single replicate well; for Mean regulation, Collagen 2A1 / Mean ΔCp, Collagen 2A1: triplicate wells; for ΔCp, Collagen 2A1: human bone marrow MSC, chondrogenic medium + TGF beta 3; for ΔCp, Collagen 2A1 / 2^-ΔΔCp vs saline, Collagen 2A1 / ΔΔCp vs saline, Collagen 2A1 / Mean ΔCp, Collagen 2A1: vs Actin
Description: (§1) • Stem Cells: Bone marrow derived human mesenchymal stem cells: Passage 5 Bone marrow derived human mesenchymal stem cells (HUXMA-01001, Cyagen Biosciences, Sunnyvale Calif.) • Mesenchymal Stem Cell Chondrogenic Differentiation medium (GUXMX-90041, Cyagen Biosciences, Sunnyvale Calif.) • TheraPEAK MSCGM chemically defined Stem cell medium (190632 Lonza) • 1 mM Dexamethasone acetate and mifepristone in absolute ethanol (Sigma) • Saline or 0.9% Sodium chloride for injection ZR Flush (Excelsior Medical, Neptune N.J.) • Sterile filtered 0.6 mM sodium caprylate in saline (sigma) • Sterile filtered 3 mM NAT in saline (sigma); To prepare, heat at 60° C. for 30 minutes then sonicate for 5 minutes. • Sterile filtered 10 mM DADKP in saline • 0.2 μM syringe filters • Hepes buffered saline, Trypsin/EDTA, Trypsin neutralizing solution (Lonza reagent pack) • 182 cm2 tissue culture flasks • pipettes and sterile tips • Tissue culture hood, humidified CO2 incubator, water or bead bath • 24 well tissue culture plates • Qiagen RNeasy plus spin columns (Qiagen 74134) • Qiagen RT2 qPCR primer pairs for Collagen 2A1, MMP13, TIMP1, Aggrecan, GAPDH, and Actin B • Roche Sybr green I master mix and Invitrogen Superscript VILO master mix. • Roche 480 lightcycler
(§2) The following stock drug treatment solutions were prepared in saline for injection and warmed to 37° C. in bath: • 4 μM dexamethasone • 4 μM mifepristone • 3 mM NAT • 0.6 mM caprylate • 80 μM DADKP • Mix of 3 mM NAT, 0.6 mM caprylate, 80 μM DADKP (“Ampion” mix)
(§3) Cyagen Chondrogenic Differentiation medium was prepared by manufacturer protocols but excluding dexamethasone and TGF beta 3 supplements, and warmed to 37° C. in bath.
(§4) The treatment protocol included expanding 5 HUXMA stem cells in 182 cm^2 flasks containing 40 mls TheraPEAK™ MSCGM to 80-90% confluence. Cells were trypsinized from the flasks and a 1.0×10^7 cell suspension of HUXMA stem cells was warmed in Cyagen Chondrogenic Differentiation medium. 20 μl of warmed cell suspension was spotted in the middle of each well of a 24-well tissue culture plate (200,000 cells per spot), and incubated at 37° C. and 5% CO2 for one hour.
(§5) The plates were removed from the incubator and an additional 720 μl chondrogenic medium was added to each well. 250 μl saline, or drug solutions were added to the appropriate wells in triplicate (bringing the final drug dilution to one-quarter of the stock drug treatment solution concentrations). 10 μl of TGF beta 3 solution (supplied by Cyagen) was added to each well, and the plates were returned to the incubator.
(§6) RNA isolation and analysis was conducted for all plates as follows at days 7, 14, and 22 post treatment (with the described medium exchanges). […] Qiagen RNeasy plus lysis buffer (with 2mercaptoethanol) was added to each well and gently shaken for 10 minutes. The lysed cell suspensions from each well were transferred to Qiashredder columns and spun at 14,000 rpm for 2 minutes. RNA isolation proceeded by RNeasy™ plus manufacturer's protocol. RNA was eluted from the Qiagen columns using 25 μl RNase free water.
(§7) cDNA synthesis and real time PCR was conducted as follows. First strand synthesis of cDNA from all samples was performed in 20 μl total volume using 10 μl isolated RNA. All cDNA reactions were then diluted with 30 μl nuclease free water. Real time PCR was then performed using 5 μl diluted cDNA, Roche Syber green master mix, and Qiagen RT^2 gPCR™ primer pairs in 20 μl total reaction volume. Relative gene expression was determined by delta deta Ct method.

[3] = system: Aggrecan; experiment: Stem cell chondrogenesis, real time PCR gene expression: Aggrecan; conditions: Day 22; for Mean ΔCp / ΔCp: Aggrecan vs Actin; for Cp Agg / Mean regulation: Aggrecan; for Mean regulation: vs saline
[4] = system: MMP13; experiment: Stem cell chondrogenesis, real time PCR gene expression: MMP13; conditions: for Cp Coll / Mean regulation: MMP13; for Cp Coll / Mean regulation / Mean ΔCp / ΔCp: Day 22; for Mean regulation: vs saline; for Mean ΔCp / ΔCp: MMP13 vs GAPDH
[5] = system: TIMP1; experiment: Stem cell chondrogenesis, real time PCR gene expression: TIMP1; conditions: Day 22; for Mean ΔCp: TIMP1 vs Actin
Description: as §1, §2, §3, §4, §5, §6, §7

[6] = vs Actin, single replicate well
[7] = Day 7, vs Actin, single replicate well

CCCCCCCC(=O)[O-].[Na+] [Caprylate, sodium caprylate]
regulation, SOX9 ([1]; fold regulation vs saline, single replicate well): 1.16 and 1.99 and 2.28
Mean regulation, SOX9 ([1]; fold regulation vs saline, triplicate wells): 1.81
ΔCp, SOX9 ([1]; human bone marrow MSC, chondrogenic medium + TGF beta 3, vs Actin, single replicate well): 6.97 and 6.19 and 5.99
2^-ΔΔCp vs saline, SOX9 [1, 6]: 1.1567 and 1.9862 and 2.2815
ΔΔCp vs saline, SOX9 [1, 6]: −0.21 and −0.99 and −1.19
Mean ΔCp, SOX9 ([1]; vs Actin, triplicate wells): 6.383
Cp Coll ([2]; Table 12): 22.93 and 25.6 and 24.26
Cp Coll ([2]; Table 16): 22.93 and 25.6 and 24.26
Mean regulation ([2]; Table 12): 101.18
Mean regulation ([2]; Table 16): 101.18
Mean ΔCp ([2]; Table 12): 6.557
ΔCp ([2]; Table 12): 6.08 and 7.19 and 6.4
Mean ΔCp ([2]; Table 16): 6.557
ΔCp ([2]; Table 16): 6.08 and 7.19 and 6.4
regulation, Collagen 2A1 ([2]; Day 7): 1.63 and −1.05 and −1.11
Mean regulation, Collagen 2A1 ([2]; Day 7): −0.18
ΔCp, Collagen 2A1 ([2]; Day 7): 6.03 and 6.81 and 6.88
2^-ΔΔCp vs saline, Collagen 2A1 ([2]; Day 7): 1.6283 and 0.9482 and 0.9033
ΔΔCp vs saline, Collagen 2A1 ([2]; Day 7): −0.7 and 0.077 and 0.147
Mean ΔCp, Collagen 2A1 ([2]; Day 7): 6.573
regulation, Collagen 2A1 ([2]; Day 14): 7.19 and 6.95 and 4.28
Mean regulation, Collagen 2A1 ([2]; Day 14): 6.14
ΔCp, Collagen 2A1 ([2]; Day 14): 8.21 and 8.26 and 8.96
2^-ΔΔCp vs saline, Collagen 2A1 ([2]; Day 14): 7.1934 and 6.9483 and 4.2772
ΔΔCp vs saline, Collagen 2A1 ([2]; Day 14): −2.85 and −2.8 and −2.1
Mean ΔCp, Collagen 2A1 ([2]; Day 14): 8.477
Mean ΔCp ([3]; Table 12): 7.42
ΔCp ([3]; Table 12): 6.11 and 9.72 and 6.43
Mean ΔCp ([3]; Table 16): 7.42
ΔCp ([3]; Table 16): 6.11 and 9.72 and 6.43
Cp Agg ([3]; Table 12): 21.64 and 25.43 and 21.95
Cp Agg ([3]; Table 16): 21.64 and 25.43 and 21.95
Mean regulation ([3]; Table 12): 10.81
Mean regulation ([3]; Table 16): 10.81
regulation, MMP13 ([4]; Day 7, fold regulation vs saline, single replicate well): −2.63 and 1.03 and −3.06
Mean regulation, MMP13 ([4]; Day 7, fold regulation vs saline, triplicate wells): −1.55
ΔCp, MMP13 ([4]; Day 7, human bone marrow MSC, chondrogenic medium + TGF beta 3, vs Actin, single replicate well): 6.03 and 4.59 and 6.25
2^-ΔΔCp vs saline, MMP13 [4, 7]: 0.3807 and 1.0329 and 0.3268
ΔΔCp vs saline, MMP13 [4, 7]: 1.393 and −0.05 and 1.613
Mean ΔCp, MMP13 ([4]; Day 7, vs Actin, triplicate wells): 5.623
Cp Coll ([4]; Table 12): 20.28 and 20.31 and 20.73
Cp Coll ([4]; Table 16): 20.28 and 20.31 and 20.73
Mean regulation ([4]; Table 12): 0.62
Mean regulation ([4]; Table 16): 0.62
Mean ΔCp ([4]; Table 12): 2.733
ΔCp ([4]; Table 12): 3.43 and 1.9 and 2.87
Mean ΔCp ([4]; Table 16): 2.733
ΔCp ([4]; Table 16): 3.43 and 1.9 and 2.87
Cp TIMP1 ([5]; TIMP1, Table 12): 17.65 and 18.77 and 19.77
Cp TIMP1 ([5]; TIMP1, Table 16): 17.65 and 18.77 and 19.77
Mean regulation ([5]; TIMP1, vs saline, Table 12): 1.12
Mean ΔCp ([5]; Table 12): 3.143
Mean ΔCp ([5]; Table 16): 3.143
